Target: full-length recombinant human FYN A (Homo sapiens (Human), UniProt P06241)
Assay: ADP-Glo Kinase Assay of FYN kinase inhibition
Type: biochemical
Conditions: primary screen, initial compounds
Excerpt: The chemical library was comprised of the SoftFocus ATP-competitive hinge binding compounds described by Harris, C. J., Hill, R. D., Sheppard, D. W., et al., The Design and Application of Target-Focused Compound Libraries. Combinatorial Chemistry and High Throughput Screening 14:521-31 (2011). The specific pharmacore chemistries included SFK52 comprising 6-[R2]-3-[R1]imidazo[1,2-b] pyridazine compounds, SFK33 comprising N-(3-[R2] imidazo [1,2-b] pyridazin-6-yl) [R1] amine compounds, SFK49 comprising N-(5-[R2] imidazo [2,1-b][1,3,4] thiadiazol-2-yl)[R1]-amine compounds, SFK 40 comprising 5-[R2]-3-[R1] pyridin-2-amine compounds, SFK43 comprising 6-[R2]-3-[R1]imidazo[1,2-a]pyrazine compounds, and SFK63. The chemical structures of the initial 600 potential kinase inhibitors are presented in Table 3, with those chosen for additional analysis presented in Table 4. Comparison of the compounds presented in Table 1 and those of Tables 2, 3 and 4, illustrate the novelty of the chemical structures claimed herein.
FYN kinase (10 micrograms) was from the FYN A Kinase Enzyme System (V3571, Promega UK Ltd.), a full-length recombinant human FYN A containing an N-terminal GST tag of about 85 kDa, expressed by bacullovirus in […] insect cells, supplied at a concentration of 0.1 microgram/microliter in 5×reaction buffer. The FYN substrate, a 12 amino acid peptide of the sequence […], containing a single tyrosine phosphorylation site, was custom synthesized (Peptide Synthetics, Peptide Protein Research, Fareham, UK) and supplied as a 4 mg/ml aqueous solution. All other reagents were obtained from Sigma (Sigma-Aldrich, Gillingham, Dorset, UK), with the exception of UltraPure ATP (V9102, Promega UK Ltd.) and the ATP-competitive broad spectrum protein kinase inhibitor staurosporine (569397, Merck Millipore, Watford, Hertfordshire, UK), or as otherwise indicated.
The assay procedure determines the IC50 of each potential FYN kinase inhibitor by measuring the enzyme catalyzed ATP-dependent phosphorylation of the FYN substrate peptide. The ADP-Glo™ Kinase Assay is specifically designed to quantify kinase activity by measuring the ADP produced in the reaction The reaction buffer comprises 40 mM Tris.HCl (pH 7.5), 20 mM MgCl2, 0.1 mg/ml BSA and 5 microM DTT. Individual compounds within the chemical library were dissolved in DMSO at known concentrations. Briefly, 2.5 microliters of reaction buffer containing 3 picograms of FYN kinase and serial dilutions of each potential FYN kinase inhibitor (9 3-fold dilutions of a 10 micromolar top sample) are placed into each well of a 384 well microtiter plate and incubated at room temperature for 30 minutes. An additional 2.5 microliters of reaction buffer containing 100 picograms of the FYN substrate and 12.5 picomoles of ATP are then added to each well and the reaction carried out for 90 minutes at room temperature. The reactions are terminated by addition of 5 microliters of the ADP-Glo™ Reagent component of the ADP-Glo™ Kinase Assay kit to each well. The ADP-Glo™ Reagent comprises an ATP-dependent adenylate cyclase, an inorganic pyrophosphatase and an excess of staurosporine. The adenylate cyclase converts the remaining ATP to cAMP and pyrophospahte, the pyrophosphatase converts the pyrophosphate to phosphate and the staurosporine inhibits the activity of the FYN kinase, the net effect is to remove all residual ATP while preserving the ADP produced by FYN kinase. The terminated reactions are incubated for 40 minutes at room temperature, prior to addition of the Kinase Detection Reagent component of the ADP-Glo™ Kinase Assay kit to each well. The Kinase Detection Reagent comprises pyruvate kinase, phosphoenol pyruvate (PEP), luciferin and luciferase. The pyruvate kinase converts PEP to pyruvate and in the process generates ATP from the residual ADP present in the terminated reaction. […]

full-length recombinant human FYN A, sequence (P06241 whole entry): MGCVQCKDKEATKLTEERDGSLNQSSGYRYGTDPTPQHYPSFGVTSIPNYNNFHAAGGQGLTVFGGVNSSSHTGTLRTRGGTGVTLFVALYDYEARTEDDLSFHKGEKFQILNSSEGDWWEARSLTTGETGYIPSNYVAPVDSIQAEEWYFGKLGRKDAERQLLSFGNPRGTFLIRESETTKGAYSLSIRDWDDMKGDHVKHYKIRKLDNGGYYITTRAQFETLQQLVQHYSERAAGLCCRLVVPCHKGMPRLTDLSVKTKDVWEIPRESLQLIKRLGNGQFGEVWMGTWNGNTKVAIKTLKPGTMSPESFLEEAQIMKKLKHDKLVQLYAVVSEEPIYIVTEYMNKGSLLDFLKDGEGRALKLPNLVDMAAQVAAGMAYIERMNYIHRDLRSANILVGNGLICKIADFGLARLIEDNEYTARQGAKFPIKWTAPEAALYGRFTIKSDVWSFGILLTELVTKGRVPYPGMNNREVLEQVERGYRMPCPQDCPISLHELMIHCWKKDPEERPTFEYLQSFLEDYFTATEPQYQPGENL

SMILES	IC50 [µM]
COc1ccc(-c2cncc(-c3cccc(NC(C)=O)c3)n2)cc1 [035_0081_0280, N-[3-[6-(4-methoxyphenyl)pyrazin-2-yl]phenyl] acetamide]	3.5
CC(=O)Nc1cccc(-c2cncc(-c3cccc(O)c3)n2)c1 [035_0081_0284, N-[3-[6-(3-hydroxyphenyl)pyrazin-2-yl]phenyl] acetamide]	3.88
CCC(CO)Nc1cncc(-c2ccc(O)cc2)n1 (stereo not drawn) [035_0153_0080, 4-[6-[1-(hydroxymethyl)propylamino]pyrazin-2-yl]phenol]	15.3
CCC(CO)Nc1cncc(-c2cc(C(C)C)ccc2OC)n1 (stereo not drawn) [035_0153_0286, 2-[[6-(5-isopropyl-2-methoxy-phenyl)pyrazin-2-yl]amino]butan-1-ol]	11.8
CCC(CO)Nc1cncc(-c2ccc(N)cc2)n1 (stereo not drawn) [035_0153_0333, 2-[[6-(4-aminophenyl)pyrazin-2-yl]amino]butan-1-ol]	21.1
Nc1cccc(-c2cncc(NCc3ccccc3)n2)c1 [035_0232_0005, 6-(3-aminophenyl)-N-benzyl-pyrazin-2-amine]	6.68
COc1ccc(-c2cncc(-c3cccc(C(=O)NCCCN(C)C)c3)n2)cc1 [035_0280_0302, N-[3-(dimethylamino)propyl]-3-[6-(4-methoxyphenyl)pyrazin-2-yl]benzamide]	9.06
COc1ccc(-c2cncc(-c3ccc(O)c(OC)c3)n2)cc1 [035_0280_0314, 2-methoxy-4-[6-(4-methoxyphenyl)pyrazin-2-yl]phenol]	5.18
COc1cccc(Cn2c(=O)[nH]c3ncc(-c4cc(OC)c(OC)c(OC)c4)nc32)c1 [170_4313_0087, 3-[(3-methoxyphenyl)methyl]-5-(3,4,5-trimethoxy-phenyl)-1H-imidazo[4,5-b]pyrazin-2-one]	23.4
COCCNc1ccc2ncc(-c3ccsc3)n2n1 [229_0033_0074, N-(2-methoxy-ethyl)-3-(3-thienyl)imidazo [1,2-b]pyridazin-6-amine]	5.23
COCCNc1ccc2ncc(-c3ccc(F)cc3)n2n1 [229_0033_0339, 3-(4-fluoro-phenyl)-N-(2-methoxyethyl) imidazo[1,2-b]pyridazin-6-amine]	4
c1ccc(-c2cnc3ccc(NCc4ccco4)nn23)cc1 [229_0144_0061, N-(2-furylmethyl)-3-phenyl-imidazo[1,2-b]pyridazin-6-amine]	6.38
COc1cc(-c2cnc3ccc(NCc4ccco4)nn23)cc(OC)c1OC [229_0144_0086, N-(2-furylmethyl)-3-(3,4,5-trimethoxyphenyl) imidazo[1,2-b]pyridazin-6-amine]	4.9
O=C(O)c1ccc(-c2cnc3ccc(NCc4ccco4)nn23)cc1 [229_0144_0140, 4-[6-(2-furylmethyl-amino)imidazo[1,2-b]pyridazin-3-yl]benzoic acid]	3.88
COc1ccc(-c2cnc3ccc(NCc4ccco4)nn23)cc1 [229_0144_0280, N-(2-furyl-methyl)-3-(4-methoxyphenyl) imidazo[1,2-b]pyridazin-6-amine]	3.68
COc1ccc(-c2cnc3ccc(NCc4cccs4)nn23)cc1 [229_0146_0280, 3-(4-methoxyphenyl)-N-(2-thienylmethyl) imidazo[1,2-b]pyridazin-6-amine]	5.39
Nc1ccc(-c2cnc3ccc(NCc4cccs4)nn23)cc1 [229_0146_0333, 3-(4-amino-phenyl)-N-(2-thienylmethyl) imidazo[1,2-b]pyridazin-6-amine]	5.42
Fc1ccc(-c2cnc3ccc(NCc4cccs4)nn23)cc1 [229_0146_0339, 3-(4-fluoro-phenyl)-N-(2-thienylmethyl) imidazo[1,2-b]pyridazin-6-amine]	3.28
CC(=O)c1cccc(-c2cnc3ccc(NCc4cccs4)nn23)c1 [229_0146_4145, 1-[3-[6-(2-thienylmethyl-amino)imidazo[1,2-b]pyridazin-3-yl]phenyl] ethanone]	0.441
CCC(CO)Nc1ccc2ncc(-c3cccs3)n2n1 (stereo not drawn) [229_0153_4147, 2-[[3-(2-thienyl)imidazo [1,2-b]pyridazin-6-yl]amino] butan-1-ol]	3.97
COc1ccc(-c2cnc3ccc(NCc4cccc(Cl)c4)nn23)cc1 [229_0223_0280, N-[(3-chlorophenyl)methyl]-3-(4-methoxyphenyl) imidazo[1,2-b]pyridazin-6-amine]	10.7
OCc1cccc(-c2cnc3ccc(NCc4cccc(Cl)c4)nn23)c1 [229_0223_0291, [3-[6-[(3-chlorophenyl)methylamino]imidazo[1,2-b]pyridazin-3-yl]phenyl] methanol]	5.11

Continued by falling IC50, values first:

IC50 [µM]	SMILES
3.1	COc1cc(-c2cnc3ccc(NCc4cccs4)nn23)cc(OC)c1OC [229_0146_0087, N-(2-thienylmethyl)-3-(3,4,5-trimethoxyphenyl) imidazo[1,2-b]pyridazin-6-amine]
2.95	COc1cccc(-c2cnc3ccc(NCc4cccs4)nn23)c1 [229_0146_4140, 3-(3-methoxyphenyl)-N-(2-thienylmethyl) imidazo[1,2-b]pyridazin-6-amine]
2.7	CN(C)c1cccc(-c2cnc(Nc3ccc(N4CCOCC4)cc3)c3nccn23)c1 [184_0088_0135, 5-[3-(dimethyl-amino)phenyl]-N-(4-morpholino-phenyl) imidazo[1,2-a]pyrazin-8-amine]
2.47	CCC(CO)Nc1ccc2ncc(-c3ccc(CO)cc3)n2n1 (stereo not drawn) [229_0153_0285, 2-[[3-[4-(hydroxy-methyl)phenyl]imidazo[1,2-b]pyridazin-6-yl]amino]butan-1-ol]
2.37	CCC(CO)Nc1ccc2ncc(-c3ccc(OC)nc3)n2n1 (stereo not drawn) [229_0153_0311, 2-[[3-(6-methoxy-3-pyridyl)imidazo [1,2-b]pyridazin-6-yl]amino] butan-1-ol]
1.79	Nc1cccc(-c2cnc3ccc(NCc4cccs4)nn23)c1 [229_0146_0005, 3-(3-aminophenyl)-N-(2-thienyimethyl) imidazo[1,2-b]pyridazin-6-amine]
1.78	C[C@@H](c1ccccc1)n1c(=O)[nH]c2ncc(-c3cccc(C(=O)N(C)C)c3)nc21 [170_0148_0349, N,N-dimethyl-3-[2-oxo-3-[(1S)-1-phenylethyl]-1H-imidazo[4,5-b]pyrazin-5-yl]benzamide]
1.7	Oc1cccc(-c2cnc3ccc(NCc4cccs4)nn23)c1 [229_0146_0284, 3-[6-(2-thienylmethyl-amino)imidazo[1,2-b]pyridazin-3-yl]phenol]
1.55	CCC(CO)Nc1ccc2ncc(-c3cccc(OC)c3)n2n1 (stereo not drawn) [229_0153_4140, 2-[[3-(3-methoxyphenyl)imidazo[1,2-b]pyridazin-6-yl]amino]butan-1-ol]
1.55	COCCNc1ccc2ncc(-c3ccc(OC)c(OC)c3)n2n1 [229_0033_0079, 3-(3,4-dimethoxy-phenyl)-N-(2-methoxyethyl) imidazo[1,2-b]pyridazin-6-amine]
1.28	CCC(CO)Nc1ccc2ncc(-c3cc(OC)c(OC)c(OC)c3)n2n1 (stereo not drawn) [229_0153_0087, 2-[[3-(3,4,5-trimethoxy-phenyl)imidazo[1,2-b]pyridazin-6-yl]amino] butan-1-ol]
1.28	CCC(CO)Nc1ccc2ncc(-c3ccc(OC)cc3)n2n1 (stereo not drawn) [229_0153_0280, 2-[[3-(4-methoxyphenyl)imidazo[1,2-b]pyridazin-6-yl]amino] butan-1-ol]
1.09	OCc1ccc(-c2cnc3ccc(NCc4cccs4)nn23)cc1 [229_0146_0285, [4-[6-(2-thienylmethyl-amino)imidazo[1,2-b]pyridazin-3-yl]phenyl] methanol]
0.391	COc1cc(Nc2cncc(-c3cccc(NC(C)=O)c3)c2)cc(OC)c1OC [081_0087_0081, N-[3-[5-(3,4,5-trimethoxyanilino)-3-pyridyl]phenyl] acetamide]

— patent US10688093B2, “Methods, compositions, and uses of novel Fyn kinase inhibitors” (priority 2015, dated 2020)
